Experiments:
Pythium aphanidermatum = assay: Contact evaluation (microtiter plate), Pythium aphanidermatum; format: cell-based
Protocol: (§1) Compound solution: Contact evaluations were conducted to determine the anti-fungal activity of each compound against Botrytis cinerea, Sclerotinia sclerotiorum, Pythium aphanidermatum, Rhizoctonia solani, Cercospora arachidicola, Mycosphaerella fijiensis, and Monilinia laxa. Five milligrams of each compound were dissolved in 0.5 milliliter of DMSO for a compound stock solution of 1.0% w/v. Compound stock solutions were serial diluted with DMSO to 20, 10, and 2 ppm final well concentration. Fungi preparation: Botrytis cinerea spores were taken from 6-week-old cultures grown at 22C on full strength potato dextrous agar (PDA) plates. Sclerotinia sclerotiorum, Pythium aphanidermatum, Rhizoctonia solani, and Monilinia laxa mycelia were taken from 4- to 10-day-old shake flask cultures grown at room temperature on full strength potato dextrous broth (PDB). Cercospora arachidicola mycelia were taken from 10- to 14-day-old shake flask cultures grown at room temperature on a full strength PDB amended with peanut oil. Mycosphaerella fijiensis mycelia were taken from 10- to 14-day-old shake flask cultures grown at room temperature on V8 juice broth. Sclerotinia sclerotiorum, Pythium aphanidermatum, Rhizoctonia solani, Cercospora arachidicola, and Mycosphaerella fijiensis mycelia (0.4 g mycelia) were blended for 45 seconds in 20 mL sterile de-ionized water. Monilinia laxa mycelia (1 g mycelia) was blended for 45 seconds in 30 mL of sterile de-ionized water. Botrytis cinerea spores were diluted with quarter strength PDB to 1×10^5 spores/mL final well concentration. All mycelia were diluted in water (1:5 mycelia:water) before distributing into the wells. Microtiter plate preparation: Compound solution (10 :L), quarter strength PDB (900 :L) and fungi preparation (100 :L) were sequentially distributed into 48-well microtiter plates (n=3 replications/compound/rate). A blank consisted of quarter strength PDB and fungi preparation. […] Final readings were the average of the three wells (Table 1).

Cercospora arachidicola = assay: Contact evaluation (microtiter plate), Cercospora arachidicola; format: cell-based
Protocol: as §1

Monilinia laxa = assay: Contact evaluation (microtiter plate), Monilinia laxa; format: cell-based
Protocol: as §1

[1] = test system: Phaseolus vulgaris (Bush bean cv. Blue Lake 274) leaves; assay: Detached bean leaf bioassay, phytotoxicity rating; format: in vivo
Protocol: Compound solution: Compound solutions were prepared by diluting compound stock solutions (1.0% w/v compound in DMSO) to 200 ppm with 0.01% w/v Triton X-100. Plant material: Middle trifoliate leaves of greenhouse grown Phaseolus vulgaris (Bush bean cv. Blue Lake 274) were excised and placed on a plastic grid above a tray containing moist towels. Treatment method: One half of the adaxial surface of the leaf was treated with the compound solution (100 :L) using a 3 cm Bacti Cell Spreader. A blank consisted of 0.01% w/v Triton X-100. A commercial fungicide control (200 ppm diluted with water) consisted of Scala. After the solutions dried, the trays containing the leaves were covered and held one day in a growth chamber (22C). The adaxial surfaces of the leaves were then inoculated with 5–60 :L droplets of Botrytis cinerea spore solution. Phytotoxicity ratings: Phytotoxicity was rated as 0=no phytotoxicity, 1=slight phytotoxicity, 2=moderate phytotoxicity, or 3=excessive phytotoxicity (Table 2).

Mycosphaerella fijiensis = assay: Contact evaluation (microtiter plate), Mycosphaerella fijiensis; format: cell-based
Protocol: as §1

Rhizoctonia solani = assay: Contact evaluation (microtiter plate), Rhizoctonia solani; format: cell-based; conditions: Rhizoctinia solani
Protocol: as §1

Botrytis cinerea [2] = assay: Detached bean leaf bioassay, fungal control; format: in vivo; conditions: 200 ppm on detached bean leaf; 100 minus percent necrotic area, three days after inoculation
Protocol: Detached Bean Leaf Bioassay
Compound solution: Compound solutions were prepared by diluting compound stock solutions (1.0% w/v compound in DMSO) to 200 ppm with 0.01% w/v Triton X-100.
Spore solution preparation: Botrytis cinerea spores were taken from 6-week-old cultures grown at 22C on full strength potato dextrous agar (PDA) plates and harvested in 1:16 frozen orange juice concentrate:water. Botrytis cinerea spore solutions were prepared by diluting spore cultures to 5×10^4 spores/mL with 1:16 frozen orange juice concentrate:water.
Plant material: Middle trifoliate leaves of greenhouse grown Phaseolus vulgaris (Bush bean cv. Blue Lake 274) were excised and placed on a plastic grid above a tray containing moist towels.
Treatment method: One half of the adaxial surface of the leaf was treated with the compound solution (100 :L) using a 3 cm Bacti Cell Spreader. A blank consisted of 0.01% w/v Triton X-100. A commercial fungicide control (200 ppm diluted with water) consisted of Scala. […]
Fungal control rating: Three days after inoculation with Botrytis, the percent necrotic area under the inoculation droplet was determined. Since the areas under the blank (0.01% w/v Triton X-100) were 100% infected, fungal control was expressed as 100 minus the percent necrotic area, and thus 0% infected is 100% fungal control (n=3 leaves/compound, 5 inoculation droplets/leaf, Table 2).

Sclerotinia sclerotiorum = assay: Contact evaluation (microtiter plate), Sclerotinia sclerotiorum; format: cell-based; conditions: Sclerotinia scierotionum
Protocol: as §1

Botrytis cinerea [3] = assay: Contact evaluation (microtiter plate), Botrytis cinerea; format: cell-based
Protocol: as §1

## COc1ccc(C2(OC)c3ccccc3N(c3ccccc3)c3ccccc32)cc1 [formula I, 9-phenyl-10-methoxy-10-(4-methoxyphenyl)-9,10-dihydroacridine]
Pythium aphanidermatum; fungicide rate 2 ppm
  Control of fungi (full, partial, none): Full
Pythium aphanidermatum; fungicide rate 10 ppm
  Control of fungi (full, partial, none): Full
Pythium aphanidermatum; fungicide rate 20 ppm
  Control of fungi (full, partial, none): Full
Cercospora arachidicola; fungicide rate 2 ppm
  Control of fungi (full, partial, none): None
Cercospora arachidicola; fungicide rate 10 ppm
  Control of fungi (full, partial, none): Full
Cercospora arachidicola; fungicide rate 20 ppm
  Control of fungi (full, partial, none): Full
Monilinia laxa; fungicide rate 2 ppm
  Control of fungi (full, partial, none): Full
Monilinia laxa; fungicide rate 10 ppm
  Control of fungi (full, partial, none): Full
Monilinia laxa; fungicide rate 20 ppm
  Control of fungi (full, partial, none): Full
[1]
  Phytotoxity (200 ppm): Slight
Mycosphaerella fijiensis; fungicide rate 2 ppm
  Control of fungi (full, partial, none): None
Mycosphaerella fijiensis; fungicide rate 10 ppm
  Control of fungi (full, partial, none): Partial
Mycosphaerella fijiensis; fungicide rate 20 ppm
  Control of fungi (full, partial, none): Full
Rhizoctonia solani; fungicide rate 2 ppm
  Control of fungi (full, partial, none): Full
Rhizoctonia solani; fungicide rate 10 ppm
  Control of fungi (full, partial, none): Full
Rhizoctonia solani; fungicide rate 20 ppm
  Control of fungi (full, partial, none): Full
Botrytis cinerea [2]
  Botrytis cinerea control (200 ppm): 80%
Sclerotinia sclerotiorum; fungicide rate 2 ppm
  Control of fungi (full, partial, none): Partial
Sclerotinia sclerotiorum; fungicide rate 10 ppm
  Control of fungi (full, partial, none): Full
Sclerotinia sclerotiorum; fungicide rate 20 ppm
  Control of fungi (full, partial, none): Full
Botrytis cinerea [3]; fungicide rate 2 ppm
  Control of fungi (full, partial, none): Partial
Botrytis cinerea [3]; fungicide rate 10 ppm
  Control of fungi (full, partial, none): Full
Botrytis cinerea [3]; fungicide rate 20 ppm
  Control of fungi (full, partial, none): Full
